Laboratory results reported in BindingDB's records for doi:10.1016/j.bmcl.2004.08.009 (Deltagen Research Laboratories, 2004).

Legend:
[1] = Inhibition of MCP-1 induced chemotaxis in THP-1 cells
[2] = molecular target: C-C chemokine receptor type 2 (Homo sapiens, UniProt P41597); experiment: Inhibition of MCP-1 induced chemotaxis in THP-1 cells
Sequence of C-C chemokine receptor type 2 (P41597 whole entry): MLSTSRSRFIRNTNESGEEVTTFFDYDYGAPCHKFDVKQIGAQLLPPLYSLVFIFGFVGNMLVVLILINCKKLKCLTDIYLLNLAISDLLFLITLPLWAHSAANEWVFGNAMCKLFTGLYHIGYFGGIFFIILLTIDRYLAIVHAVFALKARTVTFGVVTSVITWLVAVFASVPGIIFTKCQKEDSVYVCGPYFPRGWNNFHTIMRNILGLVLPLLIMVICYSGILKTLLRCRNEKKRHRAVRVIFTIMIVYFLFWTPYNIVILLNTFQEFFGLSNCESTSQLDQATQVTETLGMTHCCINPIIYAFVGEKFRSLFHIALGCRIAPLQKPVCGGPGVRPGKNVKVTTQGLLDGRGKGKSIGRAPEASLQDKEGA

SMILES | EC50 [1] [nM] | EC50 [2] [nM]
O=C(CNC(=O)c1cccc(C(F)(F)F)c1)N[C@@H]1CCN(Cc2ccc(Cl)cc2)C1 [(R)-N-(2-(1-(4-chlorobenzyl)pyrrolidin-3-ylamino)-2-oxoethyl)-3-(trifluoromethyl)benzamide] | 20 | 
O=C(CNC(=O)c1cccc(C(F)(F)F)c1)NC[C@H]1CCCN1Cc1ccc(Cl)cc1 |  | 810
O=C(CNC(=O)c1cccc(C(F)(F)F)c1)NC1CCCN(Cc2ccc(Cl)cc2)C1 (stereo not given) [N-{[1-(4-Chloro-benzyl)-piperidin-3-ylcarbamoyl]-methyl}-3-trifluoromethyl-benzamide] | 610 | 
O=C(CNC(=O)c1cccc(C(F)(F)F)c1)N[C@H]1CCN(Cc2ccc(Cl)cc2)C1 | 360 | 
O=C(CNC(=O)c1cccc(C(F)(F)F)c1)NCC1CCN(Cc2ccc(Cl)cc2)CC1 [N-({[1-(4-Chloro-benzyl)-piperidin-4-ylmethyl]-carbamoyl}-methyl)-3-trifluoromethyl-benzamide] | 40 | 
